Active and inactive are the calls of the source.
How the values were obtained:
[1] = Luminescence Cell-Based Dose Response HTS to Identify Inhibitors of 5'UTR Stem-Loop Driven Prion Protein mRNA Translation in H4 Neuroglioblastoma Cells. [Related pubchem assays: 1827 (Project Summary), 1813 (Primary HTS)]; type: functional
[2] = inhibitors of SNCA 5'UTR-driven reporter translation, confirmation, H4 neuroglioma cells, luminescence (AID 1988); type: functional, cell-based
HEK293 = test: inhibitors of LMP1-driven NF-kB reporter, dose response, cell-based, HEK293, luciferase, cherry-pick (AID 588343); type: functional; settings: Homo sapiens
[3] = A549 cell cytotoxicity, dose response, cytotoxicity control, plate reader, cherry-pick, antagonist series (AID 743412); type: functional, cell-based
[4] = HepG2 cell cytotoxicity, dose response, cytotoxicity control, plate reader, cherry-pick, antagonist series (AID 743416); type: functional, cell-based
[5] = LGR2 antagonists, dose response, cell-based, HEK293, CRE-luciferase reporter, cherry pick, set 2 (AID 743343); type: functional;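 further: transfected cells were stimulated with diluted bursicon conditioned medium after compound addition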
[6] = MC4R antagonists, dose response, counter-screen for LGR2 antagonist project, cell-based, plate reader, cherry pick (AID 743444); type: functional;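 further: transfected HEK 293 cells stimulated with alpha-MSH peptide; potency of inhibitors of the alpha-MSH evoked signal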
[7] = ADAM10 inhibitors, peptide cleavage, dose response, biochemical, QFRET (AID 743254);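 further: ADAM10 enzyme with the DM2 quenched FRET peptide as substrate; EDANS fluorescence gain as the protease cuts the substrate; inhibitor potency against ADAM10 proteolytic activity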
[8] = target: T1, High affinity choline transporter 1 (Homo sapiens, UniProt Q9GZV3); test: CHT inhibitors, dose response, cell-based, 5-point CRC, membrane potential dye (AID 504840); type: functional
T1 sequence (Q9GZV3 whole entry): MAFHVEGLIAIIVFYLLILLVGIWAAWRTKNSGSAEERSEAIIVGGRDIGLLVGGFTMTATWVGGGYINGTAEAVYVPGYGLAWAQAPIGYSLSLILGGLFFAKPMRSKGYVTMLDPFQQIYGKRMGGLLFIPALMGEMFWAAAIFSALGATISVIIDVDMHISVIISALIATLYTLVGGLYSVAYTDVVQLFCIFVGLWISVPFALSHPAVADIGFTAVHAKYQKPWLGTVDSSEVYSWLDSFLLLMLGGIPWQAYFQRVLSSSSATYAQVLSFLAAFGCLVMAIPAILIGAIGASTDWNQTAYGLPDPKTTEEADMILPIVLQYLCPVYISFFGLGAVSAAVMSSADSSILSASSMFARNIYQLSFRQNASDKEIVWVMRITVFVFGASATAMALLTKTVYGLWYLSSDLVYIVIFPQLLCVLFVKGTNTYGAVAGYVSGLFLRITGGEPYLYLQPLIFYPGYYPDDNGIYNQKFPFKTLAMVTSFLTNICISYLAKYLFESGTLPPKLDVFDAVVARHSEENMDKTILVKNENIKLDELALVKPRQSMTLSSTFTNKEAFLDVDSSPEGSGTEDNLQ

[9] = target: T1, High affinity choline transporter 1; test: CHT inhibitors, dose response, cell-based, 10-point CRC, membrane potential dye (AID 588401); type: functional;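 further: membrane potential dye fluorescence of choline-evoked depolarization via CHT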
H9c2 = test: cells; type: functional, cell-based; settings: Rattus norvegicus, H9c2, Myocardium;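 further: confirmatory concentration-response retest of ultra-high-throughput screening hits for modulation of myocardial damage; cell death induced by hydrogen peroxide oxidative stress; compound pretreatment for 60 min then peroxide exposure for 2 h; potency is for protecting the cells against peroxide damage rather than for killing them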
Galanin receptor type 3 = Galanin receptor type 3 (Homo sapiens, UniProt O60755); test: Fluorescence-based cell-based primary high throughput dose response assay to identify antagonists of the Galanin Receptor 3 (GalR3).; type: functional
cells [10] = type: functional, cell-based; settings: HEK-CNG
[11] = HEK293T cell cytotoxicity, dose response, cytotoxicity control for HIV Vif inhibitor project, cherry-picks (AID 652208); type: functional, cell-based
[12] = system: Streptococcus sp. 'group A'; test: growth inhibition of control SK(-) GAS strain, dose response, counter-screen for streptokinase expression inhibitor project, luminescence, kanamycin, BacTiterGlo, confirmation (AID 1900); type: functional, organism-based
BJ [13] = test: cytotoxicity toward BJ-TERT fibroblasts, dose response, cell-based, RAS-independent, luminescence (AID 1933); type: functional; settings: Homo sapiens
BJ [14] = test: cells; type: functional, cell-based; settings: Homo sapiens
[15] = microbe, parasite or virus in culture; type: functional; settings: Mycobacterium tuberculosis
BJ [16] = test: cytotoxicity toward BJ-TERT-LT-ST fibroblasts, dose response, cell-based, RAS-independent, luminescence (AID 1935); type: functional; settings: Homo sapiens;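 further: BJ fibroblasts immortalized with TERT plus LT and ST oncogenes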
[17] = cytotoxicity toward DRD oncogenic fibroblasts, dose response, cell-based, non-viral oncogenic, luminescence (AID 1934); type: functional; settings: Homo sapiens
Streptococcus = test: Group A Streptococcus viability loss, dose response, counter-screen for streptokinase expression inhibitor project, luminescence, BacTiterGlo (AID 1915); type: functional, organism-based;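 further: potency for reduction of bacterial viability or growth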
BJ [18] = test: cytotoxicity toward Ras-transformed BJeLR fibroblasts, dose response, cell-based, alamar blue fluorescence, cherrypicked samples (AID 2631); type: functional; settings: Homo sapiens;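 further: confirmatory dose-response assay in RAS-dependent BJ fibroblasts engineered with TERT, LT and ST, with cytotoxicity read by fluorescence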
INS1 = test: beta cell apoptosis inhibitors, cytokine rescue, dose response, luminescence, retest (AID 449756); type: functional, cell-based; settings: Rattus norvegicus;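 further: cell death triggered by IL-1 beta plus TNF-alpha plus IFN-gamma mixture; protective hits raise ATP signal compared with cytokine alone wells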
Protein Wnt-3a = Protein Wnt-3a (Mus musculus, UniProt P27467); test: Wnt3a-driven reporter signaling inhibition, dose response, selectivity assay for Gli-SUFU antagonist project, Wnt-LIGHT cells, luminescence (AID 651570); type: functional; settings: read-out: IC50_Mean;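 further: Wnt-LIGHT reporter cells stimulated with conditioned medium from Wnt3a-producing cells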
[19] = target: T2, COUP transcription factor 2 (Homo sapiens, UniProt P24468); test: Luminescence-based cell-based high throughput dose response assay to identify inhibitors of COUP-TFII (NR2F2).; type: functional;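 further: HEK293 cells transiently cotransfected with COUP-TFII expression vector and reporter; luciferase reporter luminescence driven by COUP-TFII from the pX2-168 reporter plasmid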
T2 sequence (P24468 whole entry): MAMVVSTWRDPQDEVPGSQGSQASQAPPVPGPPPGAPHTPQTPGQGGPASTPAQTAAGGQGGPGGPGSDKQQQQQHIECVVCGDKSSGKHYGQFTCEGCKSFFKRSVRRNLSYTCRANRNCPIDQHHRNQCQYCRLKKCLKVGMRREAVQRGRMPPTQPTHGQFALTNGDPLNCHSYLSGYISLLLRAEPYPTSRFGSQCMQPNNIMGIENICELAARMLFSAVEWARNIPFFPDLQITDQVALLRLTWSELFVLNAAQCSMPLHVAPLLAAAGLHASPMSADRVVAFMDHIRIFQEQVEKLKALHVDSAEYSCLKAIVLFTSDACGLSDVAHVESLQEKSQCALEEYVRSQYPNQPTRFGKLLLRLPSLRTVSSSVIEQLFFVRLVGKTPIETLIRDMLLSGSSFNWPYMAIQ

[20] = inhibitors of firefly luciferase expression or activity, dose response, H4 neuroglioma cells, luminescence (AID 1990); type: functional, cell-based
Cysteine protease ATG4B = target: T3, Cysteine protease ATG4B (Homo sapiens, UniProt Q9Y4P1); type: functional;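 further: Fluorescence-based dose-response confirmation assay measuring inhibition of ATG4B activity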
T3 sequence (Q9Y4P1 whole entry): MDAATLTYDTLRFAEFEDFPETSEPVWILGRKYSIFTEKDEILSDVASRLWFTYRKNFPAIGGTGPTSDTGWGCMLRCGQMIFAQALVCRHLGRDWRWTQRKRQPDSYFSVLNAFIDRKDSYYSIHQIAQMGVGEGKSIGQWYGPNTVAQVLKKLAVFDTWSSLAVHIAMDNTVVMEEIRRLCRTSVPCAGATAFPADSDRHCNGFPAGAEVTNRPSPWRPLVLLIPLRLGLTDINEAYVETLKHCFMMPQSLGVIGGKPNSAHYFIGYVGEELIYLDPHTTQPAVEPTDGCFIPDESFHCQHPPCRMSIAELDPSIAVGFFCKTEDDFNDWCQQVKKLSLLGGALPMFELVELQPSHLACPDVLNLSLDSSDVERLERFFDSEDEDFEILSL

Phospholipase A2 = Phospholipase A2 (Homo sapiens, UniProt P04054); type: functional;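 further: confirmatory dose-response counterscreen on phospholipase A2, testing hits that came from an ultra-high-throughput screen for ATG4B inhibitors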
Protein Tat = target: T4, Protein Tat (Human immunodeficiency virus type 1 group M subtype B (isolate HXB2)(HIV-1), UniProt P04608); type: functional;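 further: tat binding to TAR RNA read out by fluorescence polarization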
T4 sequence (P04608 whole entry): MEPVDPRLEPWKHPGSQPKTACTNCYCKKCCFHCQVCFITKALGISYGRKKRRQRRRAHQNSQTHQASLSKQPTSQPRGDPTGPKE

[21] = inhibitors of Vif binding to APOBEC3G peptide, primary screen, biochemical, TR-FRET, GST-Vif 1-94, biotin-A3G peptide, dose response retest (AID 1117319); type: functional;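 further: TR-FRET signal of purified GST-Vif binding a biotinylated A3G peptide; inhibitors lower the FRET signal by blocking Vif and A3G binding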
[22] = HEK293T cytotoxicity, dose response, cytotoxicity control for miR-122 modulator project, cell-based, inhibitor set, cherry-pick, set 2 (AID 720697); type: functional
[23] = target: Fructose-bisphosphate aldolase (Mycobacterium tuberculosis, UniProt P9WQA3); test: Fluorescence-based biochemical high throughput dose response assay for inhibitors of the fructose-bisphosphate aldolase (FBA) of M. tuberculosis.; type: functional
[24] = THP-1 cell cytotoxicity, dose response, cytotoxicity control for non-replicating M. tuberculosis project (AID 489025); type: functional
cells [25] = type: functional
[26] = intracellular Trypanosoma cruzi inhibitors in host cells – cell-based, plate reader, cherry-pick samples, set 3, dose response (AID 651818); type: functional;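 further: compounds incubated with infected cells for about four days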
Paired box protein Pax-8 = Paired box protein Pax-8 (Homo sapiens, UniProt Q06710); test: inhibitors of PAX8-driven TPO luciferase reporter, dose response, RMG-I cells, cherry-pick (AID 687027); type: functional, cell-based;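 further: luciferase reporter driven by Pax8 target thyroperoxidase promoter measured by SteadyGlo luminescence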
[27] = NIH:OVCAR-3 ovarian cancer cell cytotoxicity, dose response, PAX8 inhibitor project, plate reader, dry powder samples (AID 743044); type: functional, cell-based
[28] = IGROV1 ovarian cancer cell cytotoxicity, dose response, PAX8 inhibitor project, plate reader, dry powder samples (AID 743043); type: functional, cell-based; settings: IGROV-1
[29] = cytotoxicity in OVCAR8 ovarian cancer cells, dose response, PAX8 project, cell-based, plate reader, dry powder samples (AID 743197); type: functional; settings: OVCAR-8
[30] = non-specific cell cytotoxicity, dose response, cytotoxicity control for PAX8 inhibitor project, plate reader, dry powder samples (AID 743021); type: functional, cell-based
Cryptococcus neoformans = test: PubChem AID 686997; type: functional, organism-based
[31] = T. cruzi growth inhibition in host cells, dose response, cell-based, plate reader, dry powder, set 2 (AID 652275); type: functional

Sequence of Paired box protein Pax-8 (Q06710 whole entry): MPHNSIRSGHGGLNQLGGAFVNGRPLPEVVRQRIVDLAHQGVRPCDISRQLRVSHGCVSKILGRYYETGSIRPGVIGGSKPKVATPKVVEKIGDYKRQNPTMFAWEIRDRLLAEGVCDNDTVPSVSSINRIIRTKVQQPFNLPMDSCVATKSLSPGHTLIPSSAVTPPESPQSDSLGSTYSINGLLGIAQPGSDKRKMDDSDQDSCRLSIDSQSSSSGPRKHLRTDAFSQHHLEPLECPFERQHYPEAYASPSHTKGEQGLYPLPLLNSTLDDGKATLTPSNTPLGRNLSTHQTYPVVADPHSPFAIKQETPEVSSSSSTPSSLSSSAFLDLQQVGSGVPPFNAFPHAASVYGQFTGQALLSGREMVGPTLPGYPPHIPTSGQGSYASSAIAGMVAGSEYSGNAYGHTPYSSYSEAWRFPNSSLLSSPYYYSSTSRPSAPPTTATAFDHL
Sequence of Fructose-bisphosphate aldolase (P9WQA3 whole entry): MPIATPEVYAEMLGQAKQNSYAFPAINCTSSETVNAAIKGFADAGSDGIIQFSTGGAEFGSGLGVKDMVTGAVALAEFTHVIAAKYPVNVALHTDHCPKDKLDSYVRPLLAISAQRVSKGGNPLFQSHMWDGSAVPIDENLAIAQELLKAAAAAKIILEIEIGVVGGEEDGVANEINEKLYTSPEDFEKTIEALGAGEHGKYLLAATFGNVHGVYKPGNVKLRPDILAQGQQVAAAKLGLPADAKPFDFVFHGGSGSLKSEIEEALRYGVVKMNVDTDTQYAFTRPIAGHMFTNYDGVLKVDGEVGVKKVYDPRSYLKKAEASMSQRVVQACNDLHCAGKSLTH
Sequence of Galanin receptor type 3 (O60755 whole entry): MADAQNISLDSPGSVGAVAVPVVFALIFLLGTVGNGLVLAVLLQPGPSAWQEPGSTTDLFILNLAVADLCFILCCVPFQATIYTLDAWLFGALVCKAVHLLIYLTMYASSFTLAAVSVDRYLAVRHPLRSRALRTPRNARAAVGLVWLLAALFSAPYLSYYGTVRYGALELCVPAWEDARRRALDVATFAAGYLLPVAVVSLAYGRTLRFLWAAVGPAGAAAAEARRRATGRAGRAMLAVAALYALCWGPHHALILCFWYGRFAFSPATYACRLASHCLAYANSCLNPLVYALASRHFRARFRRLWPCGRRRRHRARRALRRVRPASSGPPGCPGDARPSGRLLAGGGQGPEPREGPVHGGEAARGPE
Sequence of Phospholipase A2 (P04054 whole entry): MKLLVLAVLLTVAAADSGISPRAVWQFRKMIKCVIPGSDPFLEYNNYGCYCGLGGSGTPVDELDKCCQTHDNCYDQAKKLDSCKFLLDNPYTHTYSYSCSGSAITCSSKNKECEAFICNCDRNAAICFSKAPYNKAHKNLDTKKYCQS
Sequence of Protein Wnt-3a (P27467 whole entry): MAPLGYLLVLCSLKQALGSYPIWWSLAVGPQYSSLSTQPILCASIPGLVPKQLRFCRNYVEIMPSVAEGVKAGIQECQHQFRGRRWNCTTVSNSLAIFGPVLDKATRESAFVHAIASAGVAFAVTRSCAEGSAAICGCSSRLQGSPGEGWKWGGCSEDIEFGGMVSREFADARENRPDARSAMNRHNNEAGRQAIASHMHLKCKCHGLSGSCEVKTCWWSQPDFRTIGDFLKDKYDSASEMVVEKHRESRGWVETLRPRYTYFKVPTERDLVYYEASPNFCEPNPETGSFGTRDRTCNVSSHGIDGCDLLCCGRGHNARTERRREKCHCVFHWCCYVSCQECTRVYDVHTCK

O=C(NCCc1ccccc1)c1ccc2nccnc2c1
EC50 [1]: 9.34 µM (active)
EC50 [2]: 9.37 µM (active)
AC50 (HEK293): 3.05 µM (active)
AC50 [3]: 22.1 µM (active)
AC50 [4]: 20.3 µM (active)
AC50 [5]: 5 µM (active)
AC50 [6]: 4.77 µM (active)

CC(C)C[C@H](NC(=O)c1[nH]cnc1C(=O)Nc1ccc(CNC(=O)OC(C)(C)C)cc1)C(=O)OC(C)(C)C
IC50 [7]: > 69.5 µM (inactive)

COc1ccc(-c2cc(=O)c3cc(O)ccc3o2)cc1
IC50 [8]: 4.38 µM (active)
IC50 [9]: 3.64 µM (active)

Cc1noc(C)c1Cn1nc(C(=O)O)c2ccccc2c1=O
IC50 (H9c2): 18.6 µM (active)
IC50 (Galanin receptor type 3): > 29.9 µM (inactive)
EC50 (cells [10]): > 29.9 µM (inactive)

Cc1ccc(NS(=O)(=O)c2cccc(C(=O)NCC(c3ccco3)N3CCCCC3)c2)cc1 (configuration not stated)
IC50 [8]: 9.8 µM (active)
IC50 [9]: 5.39 µM (active)

CCc1ccc2[nH]c3nc(SCC(=O)NNC(=O)c4ccc(C(C)(C)C)cc4)nnc3c2c1
AC50 [11]: 28.6 µM (active)

Cc1nc(N)nc(N)c1CCCc1ccc(Cl)c(Cl)c1
EC50 [12]: 1.03 µM (active)
EC50 (BJ [13]): 17 µM (active)
EC50 (BJ [14]): 1.36 µM (active)
CC50 [15]: 4.07 µM (active)
EC50 (BJ [16]): > 150 µM (not active)
EC50 [17]: 3.05 µM (active)
EC50 (Streptococcus): 4.01 µM (active)
EC50 (BJ [18]): > 133 µM (inactive)

NC(=O)c1c(-c2ccc(Cl)cc2Cl)csc1NC(=O)Cc1ccccc1
AC50 (INS1): 2.86 µM (active)
IC50 (Protein Wnt-3a): 1.91 µM (active)
IC50 (Galanin receptor type 3): 0.513 µM (active)
EC50 (cells [10]): > 29.9 µM (inactive)
IC50 [19]: 5.15 µM (active)

COc1ccc(-c2ccc(C#N)c(SCC(=O)Nc3sc4c(c3C#N)CCC4)n2)cc1OC
EC50 [20]: 13.9 µM (active)
EC50 [1]: > 120 µM (not active)
EC50 [2]: 11.1 µM (active)
IC50 (Cysteine protease ATG4B): 5.44 µM (active)
IC50 (Phospholipase A2): 4.06 µM (active)
IC50 (Protein Tat): > 100 µM (active)
IC50 [21]: > 100 µM (active)

CC(=O)Nc1ccc(-c2cc(-c3ccc(NC(C)=O)cc3)nc(-c3ccc(NC(C)=O)cc3)n2)cc1
AC50 [22]: 8.27 µM (active)

O=C(/C=C/c1ccccc1)Nc1nc[nH]n1
AC50 [11]: 23.6 µM (active)

COc1ccc2nc3c(O)n4c(nc-3c2c1)SCC4
IC50 [23]: 1.4 µM (active)

COc1ccc2nc(N=C(N)NC(=O)C(C)(C)C)nc(C)c2c1
CC50 [24]: > 40 µM (active)
IC50 (cells [25]): 9.61 µM (active)
IC50 [23]: 1.89 µM (active)

O=C(/C=C\c1ccco1)Nc1cc([N+](=O)[O-])ccc1F
EC50 (BJ [13]): 1.44 µM (active)
EC50 (BJ [14]): 2.06 µM (active)
EC50 (BJ [16]): 0.821 µM (active)
EC50 [17]: 1.17 µM (active)
EC50 (BJ [18]): 0.42 µM (active)

C[C@@H]1CN([C@@H](C)CO)C(=O)c2cc(NC(=O)Nc3ccc(C(F)(F)F)cc3)ccc2O[C@H]1CN(C)C(=O)Nc1ccc(C(F)(F)F)cc1
AC50 [26]: 3.41 µM (active)
AC50 (Paired box protein Pax-8): 5.97 µM (active)
AC50 [27]: 42.1 µM (active)
AC50 [28]: 52.1 µM (active)
AC50 [29]: 61.2 µM (active)

C[C@@H]1CN([C@@H](C)CO)C(=O)Cc2cc(NC(=O)Cc3ccccc3)ccc2O[C@H]1CN(C)Cc1ccc(-c2ccccc2)cc1
AC50 (Paired box protein Pax-8): 9.31 µM (active)
AC50 [30]: 45.7 µM (active)

COC(=O)C1=C(C)N(Cc2ccc(F)cc2)C(=S)NC1c1cccc(Cl)c1 (configuration not stated)
AC50 (Cryptococcus neoformans): 49.5 µM (active)
AC50 (Cryptococcus neoformans; Cryptococcus neoformans): > 70 µM (inactive)

C[C@@H]1CCCCO[C@H](CN(C)Cc2ccc(Cl)c(Cl)c2)[C@@H](C)CN([C@@H](C)CO)C(=O)c2cc(NC(=O)Cc3ccccc3)ccc2O1
AC50 (Paired box protein Pax-8): 11.2 µM (active)
AC50 [27]: 33.4 µM (active)
AC50 [28]: 50.5 µM (active)
AC50 [29]: > 70 µM (inactive)

C[C@H]1CN([C@@H](C)CO)C(=O)c2cccc(NC(=O)c3ccncc3)c2O[C@@H]1CN(C)Cc1cc(Cl)cc(Cl)c1
AC50 [31]: 0.0105 µM (active)

CCC(=O)N1[C@H](CO)[C@@H](c2ccccc2)[C@@H]1CN(C(C)C)S(C)(=O)=O
AC50 [22]: 0.51 µM (active)

Reference: ChEMBL document CHEMBL1201862, “PubChem BioAssay data set” (2004)
